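Method: 48-hour compound exposure of cells in 96-well plates, five concentrations, linear interpolation of endpoints. GI50 is the concentration that inhibits growth by half.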 Calls of active or inactive are those of the source. Cut-off read from the data, not from the text of the source: active = GI50 up to about 1.1 µM and inactive = higher.
Legend:
Test in all cases: DTP human tumour cell line panel, 48 h
[1] = system: 786-0
[2] = system: A498
[3] = system: A549
[4] = system: ACHN
[5] = system: BT-549
[6] = system: CAKI-1
[7] = system: CCRF-CEM
[8] = system: COLO 205
[9] = system: DU-145
[10] = system: EKVX
[11] = system: HCC 2998
[12] = system: HCT-116
[13] = system: HCT-15
[14] = system: HL-60
[15] = system: HOP-62
[16] = system: HOP-92
[17] = system: HT-29
[18] = system: Hs-578T
[19] = system: IGROV-1
[20] = system: K562
[21] = system: KM12
[22] = system: LOX IMVI
[23] = system: M14
[24] = system: MCF7
[25] = system: MDA-MB-231
[26] = system: MDA-MB-435
[27] = system: MDA-N
[28] = system: Malme-3M
[29] = system: NCI-H226
[30] = system: NCI-H23
[31] = system: NCI-H460
[32] = system: NCI-H522
[33] = system: NCI/ADR-RES
[34] = system: OVCAR-3
[35] = system: OVCAR-4
[36] = system: OVCAR-5
[37] = system: OVCAR-8
[38] = system: PC-3
[39] = system: RPMI-8226
[40] = system: SF-268
[41] = system: SF-295
[42] = system: SF-539
[43] = system: SK-MEL-28
[44] = system: SK-MEL-2
[45] = system: SK-MEL-5
[46] = system: SK-OV-3
[47] = system: SN12C
[48] = system: SNB-19
[49] = system: SNB-75
[50] = system: SW-620
[51] = system: T47D
[52] = system: TK-10
[53] = system: U-251
[54] = system: UACC-257
[55] = system: UACC-62
[56] = system: UO-31
[57] = system: MOLT-4
[58] = system: RXF 393
[59] = system: SR

## Cc1ccc(S(=O)(=O)N(CC(O)c2ccccc2)c2ccccc2F)cc1 (stereo not given)
[1]
  GI50: 17.6 µM (inactive)
[2]
  GI50: 19.9 µM (inactive)
[3]
  GI50: 19.5 µM (inactive)
[4]
  GI50: 20.2 µM (inactive)
[5]
  GI50: 16.6 µM (inactive)
[6]
  GI50: 15.7 µM (inactive)
[7]
  GI50: 25.3 µM (inactive)
[8]
  GI50: 15.4 µM (inactive)
[9]
  GI50: 16.1 µM (inactive)
[10]
  GI50: 35.6 µM (inactive)
[11]
  GI50: 24.2 µM (inactive)
[12]
  GI50: 12.7 µM (inactive)
[13]
  GI50: 17.7 µM
[14]
  GI50: 1.13 µM (inactive)
[15]
  GI50: 16.8 µM (inactive)
[16]
  GI50: 10.2 µM (inactive)
[17]
  GI50: 19.3 µM (inactive)
[18]
  GI50: 16.9 µM (inactive)
[19]
  GI50: 21.7 µM (inactive)
[20]
  GI50: 17 µM (inactive)
[21]
  GI50: 16.8 µM (inactive)
[22]
  GI50: 16.1 µM (inactive)
[23]
  GI50: 16.4 µM (inactive)
[24]
  GI50: 13 µM (inactive)
[25]
  GI50: 18.2 µM (inactive)
[26]
  GI50: 16.2 µM (inactive)
[27]
  GI50: 15.7 µM (inactive)
[28]
  GI50: 16.4 µM (inactive)
[29]
  GI50: 20.7 µM (inactive)
[30]
  GI50: 16.6 µM (inactive)
[31]
  GI50: 17.4 µM (inactive)
[32]
  GI50: 17.3 µM (inactive)
[33]
  GI50: 16.4 µM (inactive)
[34]
  GI50: 11.3 µM (inactive)
[35]
  GI50: 13.5 µM (inactive)
[36]
  GI50: 19.2 µM (inactive)
[37]
  GI50: 19.3 µM (inactive)
[38]
  GI50: 15.5 µM (inactive)
[39]
  GI50: 17 µM (inactive)
[40]
  GI50: 15.9 µM (inactive)
[41]
  GI50: 17.5 µM (inactive)
[42]
  GI50: 16.6 µM (inactive)
[43]
  GI50: 18 µM (inactive)
[44]
  GI50: 17.9 µM (inactive)
[45]
  GI50: 15.9 µM (inactive)
[46]
  GI50: 17.4 µM (inactive)
[47]
  GI50: 17.8 µM (inactive)
[48]
  GI50: 18 µM (inactive)
[49]
  GI50: 12.3 µM (inactive)
[50]
  GI50: 19.6 µM (inactive)
[51]
  GI50: 14.5 µM (inactive)
[52]
  GI50: 19.7 µM (inactive)
[53]
  GI50: 19.5 µM (inactive)
[54]
  GI50: 4.65 µM (inactive)
[55]
  GI50: 12.2 µM (inactive)
[56]
  GI50: 16.2 µM (inactive)

## N#CCCN(CCN(CCC#N)C(=O)Nc1ccccc1)C(=O)Nc1ccccc1
[1]
  GI50: 75.5 µM (inactive)
[2]
  GI50: > 100 µM (inactive)
[3]
  GI50: 80.2 µM (inactive)
[4]
  GI50: > 100 µM (inactive)
[5]
  GI50: 31 µM (inactive)
[7]
  GI50: > 100 µM (inactive)
[8]
  GI50: > 100 µM (inactive)
[9]
  GI50: 76.9 µM (inactive)
[10]
  GI50: 90.8 µM (inactive)
[11]
  GI50: > 100 µM (inactive)
[12]
  GI50: 49.3 µM (inactive)
[13]
  GI50: > 100 µM
[14]
  GI50: > 100 µM (inactive)
[15]
  GI50: 20.8 µM (inactive)
[16]
  GI50: 37.6 µM (inactive)
[17]
  GI50: > 100 µM (inactive)
[18]
  GI50: 33.8 µM (inactive)
[19]
  GI50: 68.9 µM (inactive)
[20]
  GI50: > 100 µM (inactive)
[22]
  GI50: > 100 µM (inactive)
[23]
  GI50: > 100 µM (inactive)
[24]
  GI50: > 100 µM (inactive)
[25]
  GI50: > 100 µM (inactive)
[27]
  GI50: > 100 µM (inactive)
[57]
  GI50: > 100 µM (inactive)
[28]
  GI50: > 100 µM (inactive)
[29]
  GI50: > 100 µM (inactive)
[30]
  GI50: 61.4 µM (inactive)
[31]
  GI50: 68.5 µM (inactive)
[32]
  GI50: 32.3 µM (inactive)
[33]
  GI50: 72.6 µM (inactive)
[36]
  GI50: > 100 µM (inactive)
[37]
  GI50: 57.5 µM (inactive)
[38]
  GI50: 69.3 µM (inactive)
[39]
  GI50: > 100 µM (inactive)
[58]
  GI50: 24.4 µM (inactive)
[40]
  GI50: 28.5 µM (inactive)
[41]
  GI50: 31.8 µM (inactive)
[43]
  GI50: > 100 µM (inactive)
[44]
  GI50: > 100 µM (inactive)
[45]
  GI50: > 100 µM (inactive)
[46]
  GI50: 28.6 µM (inactive)
[47]
  GI50: > 100 µM (inactive)
[48]
  GI50: 32.7 µM (inactive)
[49]
  GI50: 19.5 µM (inactive)
[59]
  GI50: > 100 µM (inactive)
[50]
  GI50: > 100 µM (inactive)
[51]
  GI50: > 100 µM (inactive)
[52]
  GI50: > 100 µM (inactive)
[53]
  GI50: 39.6 µM (inactive)
[54]
  GI50: > 100 µM (inactive)
[55]
  GI50: > 100 µM (inactive)
[56]
  GI50: 85.7 µM (inactive)

## CCOC(=O)c1ccc(Nc2nc3ccccc3nc2C(=O)OCC)cc1
[1]
  GI50: 57.7 µM (inactive)
[3]
  GI50: > 100 µM (inactive)
[4]
  GI50: > 100 µM (inactive)
[5]
  GI50: > 100 µM (inactive)
[6]
  GI50: > 100 µM (inactive)
[7]
  GI50: > 100 µM (inactive)
[8]
  GI50: > 100 µM (inactive)
[9]
  GI50: > 100 µM (inactive)
[10]
  GI50: > 100 µM (inactive)
[11]
  GI50: > 100 µM (inactive)
[12]
  GI50: > 100 µM (inactive)
[13]
  GI50: > 100 µM
[14]
  GI50: > 100 µM (inactive)
[15]
  GI50: > 100 µM (inactive)
[16]
  GI50: 43.1 µM (inactive)
[17]
  GI50: > 100 µM (inactive)
[18]
  GI50: 59.6 µM (inactive)
[19]
  GI50: > 100 µM (inactive)
[20]
  GI50: > 100 µM (inactive)
[21]
  GI50: 75.5 µM (inactive)
[23]
  GI50: > 100 µM (inactive)
[24]
  GI50: > 100 µM (inactive)
[25]
  GI50: > 100 µM (inactive)
[26]
  GI50: > 100 µM (inactive)
[27]
  GI50: > 100 µM (inactive)
[57]
  GI50: > 100 µM (inactive)
[28]
  GI50: > 100 µM (inactive)
[30]
  GI50: > 100 µM (inactive)
[31]
  GI50: > 100 µM (inactive)
[32]
  GI50: > 100 µM (inactive)
[33]
  GI50: > 100 µM (inactive)
[34]
  GI50: > 100 µM (inactive)
[35]
  GI50: > 100 µM (inactive)
[36]
  GI50: > 100 µM (inactive)
[37]
  GI50: > 100 µM (inactive)
[39]
  GI50: 85.9 µM (inactive)
[40]
  GI50: > 100 µM (inactive)
[42]
  GI50: > 100 µM (inactive)
[43]
  GI50: > 100 µM (inactive)
[44]
  GI50: > 100 µM (inactive)
[45]
  GI50: > 100 µM (inactive)
[46]
  GI50: > 100 µM (inactive)
[47]
  GI50: > 100 µM (inactive)
[48]
  GI50: > 100 µM (inactive)
[49]
  GI50: 24.7 µM (inactive)
[59]
  GI50: > 100 µM (inactive)
[51]
  GI50: > 100 µM (inactive)
[52]
  GI50: > 100 µM (inactive)
[53]
  GI50: > 100 µM (inactive)
[55]
  GI50: > 100 µM (inactive)
[56]
  GI50: > 100 µM (inactive)
